Results: patent US20230310452A1, “BROMODOMAIN AND EXTRA TERMINAL DOMAIN (BET) INHIBITOR COMPOSITIONS AND METHODS THEREOF FOR USE AS ANTI-AGING AGENTS” (MDI Biological Laboratory, priority 2020, published 2023)
“Also recorded” adds a separate entry of the source.

Experiments:
BET = details: cited from earlier work
CGI- gene expression [1] = experiment: CGI- gene expression upon treatment with BET inhibitors other than JQ1 in cell lines/tissues (FIG. 14); assay type: cell-based; details: indicated cell lines/tissues, concentrations, durations, vs untreated controls
Description: Moreover, the cell line or tissue used in the BET inhibitor treatment, as well as treatment duration and concentration were also provided.

CGI- genes / CGI+ genes = experiment: Gene expression changes upon JQ1 treatment versus untreated controls (FIGS. 12A-12C); assay type: cell-based
Description: (§1) FIG. 12 illustrates JQ1 treatment suppresses CGI- gene misexpression. FIGS. 12A-12B show gene expression changes upon JQ1 treatment. […] All data are from the comparison of JQ1 treated with untreated controls for CGI+ genes (upper) and CGI- genes (lower) for each cell type. TAC: transverse aortic constriction. […] Representative data from three blind tests with similar results are shown. The control (Con) curve is to the left of the JQ1 treatment curve from 12-19 days post treatment.
BET family proteins (e.g., BRD2/4) are also components of local enhancer mediated transcriptional activation (FIG. 11A).
(§2) The effects of JQ1 on C. elegans lifespan was also tested. […] Treatment with BET inhibitors can suppress misexpression of CGI- genes during aging, and that this, in turn, will delay age-associated degenerative changes in mice.

C. elegans = C. elegans lifespan after one-time JQ1 treatment (FIG. 12D); assay type: in vivo; details: representative of three blind tests
Description: as §1, §2

CGI- gene expression [2] = experiment: JQ1 in vivo treatment of mice, published RNA-seq data, CGI- gene expression (FIG. 13); details: intraperitoneal injections of 50 mg/kg/day, vs untreated controls
Protocol: FIG. 13 illustrates JQ1 in vivo treatment data based on published RNA-seq data generated from mice by intraperitoneal injections of 50 mg/kg/day as indicated. All data are from the comparison with untreated controls for CGI+ genes (upper) and CGI- genes (lower) for each of *p < 0.05; **p < 0.01, ***p< 0.001. Sham operation; transverse aortic constriction (TAC); myocardial infarction (MI).
All of the data were based on published RNA-seq data and compared to untreated controls for CGI+ and CGI- genes.

[3] = cited from earlier work

Structure (SMILES)	CGI- gene expression upon BET inhibitors other than JQ1 (CGI- gene expression [1])	also measured
Oc1ccc(C=Cc2cc(O)cc(O)c2)cc1 [resveratrol]		pan-BET inhibitor activity (BET): pan-BET inhibitor activity
COc1cc2c(cc1-c1c(C)noc1C)ncc1[nH]c(=O)n([C@H](C)c3ccccn3)c12 [I-BET 151, (R)-7-(3,5-dimethylisoxazol-4-yl)-8-methoxy-1-(1-(pyridin-2-yl)ethyl)-1,3-dihydro-2H-imidazo[4,5-c]quinolin-2-one]	suppress Cytosine-phosphate-Guanine (CpG) island negative genes	
Cc1sc2c(c1C)C(c1ccc(Cl)cc1)=N[C@@H](CC(=O)OC(C)(C)C)c1nnc(C)n1-2 [JQ1, tert-butyl (S)-2-(4-(4-chlorophenyl)-2,3,9-trimethyl-6H-thieno[3,2-f][1,2,4]triazolo[4,3-a][1,4]diazepin-6-yl)acetate]		overlap of CGI- genes downregulated by JQ1 with CGI- genes upregulated during aging or upon nuclear architecture disruption (CGI- genes / CGI+ genes; FIG. 12C): largely overlapped; CGI- gene expression upon JQ1 treatment (CGI- genes / CGI+ genes; JQ1 treated vs untreated controls, each cell type, FIGS. 12A-12B): global downregulation of CGI- gene expression; also recorded: suppresses CGI- gene expression; CGI+ gene expression upon JQ1 treatment (CGI- genes / CGI+ genes; JQ1 treated vs untreated controls, FIGS. 12A-12B): not significantly affected; median lifespan of adult C. elegans (C. elegans): significantly extended the median lifespan; also recorded: lifespan extension; CGI- gene expression in mice (CGI- gene expression [2]): suppression of CGI- gene expression; safety for humans [3]: safe for humans
COc1nnc2ccc(N3CCC(c4ccc(OCCN5CCN(C)C(=O)[C@H]5C)cc4)CC3)nn12 [AZD 5153, (R)-4-(2-(4-(1-(3-methoxy-[1,2,4]triazolo[4,3-b]pyridazin-6-yl)piperidin-4-yl)phenoxy)ethyl)-1,3-dimethylpiperazin-2-one]	suppress Cytosine-phosphate-Guanine (CpG) island negative genes	
CCS(=O)(=O)Nc1ccc(Oc2ccc(F)cc2F)c(-c2cn(C)c(=O)c3[nH]ccc23)c1 [ABBV-075, N-(4-(2,4-difluorophenoxy)-3-(6-methyl-7-oxo-6,7-dihydro-1H-pyrrolo[2,3-c]pyridin-4-yl)phenyl)ethanesulfonamide]	suppress Cytosine-phosphate-Guanine (CpG) island negative genes	
Cc1sc2c(c1C)C(c1ccc(Cl)cc1)=N[C@@H](CC(N)=O)c1nnc(C)n1-2 [CPI-203, (S)-2-(4-(4-chlorophenyl)-2,3,9-trimethyl-6H-thieno[3,2-f][1,2,4]triazolo [4,3-a][1,4]diazepin-6-yl)acetamide]	suppress Cytosine-phosphate-Guanine (CpG) island negative genes	
Cc1noc(C)c1-c1cnc2c(-c3ccc(C(=O)O)cc3)cn([C@@H](C)c3ccccn3)c2c1 [PLX51107, (S)-4-(6-(3,5-dimethylisoxazol-4-yl)-1-(1-(pyridin-2-yl)ethyl)-1H-pyrrolo[3,2-b]pyridin-3-yl)benzoic acid]	suppress Cytosine-phosphate-Guanine (CpG) island negative genes	
Cc1sc2c(c1C)C(c1ccc(Cl)cc1)=N[C@@H](CC(=O)NCCCCCCCCCCNC(=O)C[C@@H]1N=C(c3ccc(Cl)cc3)c3c(sc(C)c3C)-n3c(C)nnc31)c1nnc(C)n1-2 [MS645, (S)-N,N′-(decane-1,10-diyl)bis(2-((6S)-4-(4-chlorophenyl)-2,3,9-trimethyl-6H-thieno[3,2-f] [1,2,4]triazolo[4,3-a][1,4]diazepin-6-yl)acetamide)]	suppress Cytosine-phosphate-Guanine (CpG) island negative genes	
Cc1sc2c(c1C)C(c1ccc(Cl)cc1)=N[C@@H](CC(=O)Nc1ccc(OCCOCCOCCOCCNc3cccc4c3C(=O)N(C3CCC(=O)NC3=O)C4=O)cc1)c1nnc(C)n1-2 (stereo partly drawn) [ARV-825, 2-((S)-4-(4-chlorophenyl)-2,3,9-trimethyl-6H-thieno[3,2-f][1,2,4]triazolo [4,3-a][1,4]diazepin-6-yl)-N-(4-(2-(2-(2-(2-((2-(2,6-dioxopiperidin-3-yl)-1,3-dioxoisoindolin-4-yl)amino)ethoxy)ethoxy)ethoxy)ethoxy)phenyl)acetamide]	suppress Cytosine-phosphate-Guanine (CpG) island negative genes	
CCNC(=O)c1cc2c(-c3cc(C(C)(C)O)ccc3Oc3c(C)cc(F)cc3C)cn(C)c(=O)c2[nH]1 [ABBV-744, N-ethyl-4-(2-(4-fluoro-2,6-dimethylphenoxy)-5-(2-hydroxypropan-2-yl)phenyl)-6-methyl-7-oxo-6,7-dihydro-1H-pyrrolo[2,3-c]pyridine-2-carboxamide]	suppress Cytosine-phosphate-Guanine (CpG) island negative genes	
COc1cc(-c2cn(C)c(=O)c3cnccc23)cc(OC)c1CN(C)CC(=O)NCCOCCOCCNc1cccc2c1C(=O)N(C1CCC(=O)NC1=O)C2=O.Cl.Cl (centres unmarked) [dBRD9, 2-[[[4-(1,2-Dihydro-2-methyl-1-oxo-2,7-naphthyridin-4-yl)-2-6-dimethoxyphenyl]methyl]methylamino]-N-[2-[2-[2-[[2-(2,6-dioxo-3-piperidinyl)-2,3-dihydro-1,3-dioxo-1H-isoindol-4-yl]amino]ethoxy]ethoxy]ethyl] acetamide dihydrochloride]	suppress Cytosine-phosphate-Guanine (CpG) island negative genes	
COC(=O)C[C@@H]1N=C(c2ccc(Cl)cc2)c2c(sc(C)c2C)-n2c(C)nnc21 [MS417, methyl (S)-2-(4-(4-chlorophenyl)-2,3,9-trimethyl-6H-thieno[3,2-f][1,2,4]triazolo[4,3-a][1,4]diazepin-6-yl)acetate]	suppress Cytosine-phosphate-Guanine (CpG) island negative genes	
